Laboratory results reported in ChEMBL document CHEMBL1201862, “PubChem BioAssay data set” (2004).
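Tested at 5 concentrations; 48 h exposure; 96-well plates; endpoints linearly interpolated, else capped at highest concentration. The concentration for 50% growth inhibition is given as GI50.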 Activity calls are given as the source filed them. Rule as the data show it: active = GI50 up to about 1.1 µM and inactive = higher. Peptide text beside a SMILES is read from it. * marks the point of attachment. Boc = CC(C)(C)OC(=O)*; OtBu = CC(C)(C)O*

Assays:
Experiment in all cases: NCI anticancer screen, dose series, 48 h
A498 = test system: A498
M14 = test system: M14
SNB-75 = test system: SNB-75
SK-OV-3 = test system: SK-OV-3
A549 = test system: A549
HOP-62 = test system: HOP-62
SNB-19 = test system: SNB-19
LOX IMVI = test system: LOX IMVI
ACHN = test system: ACHN
SW-620 = test system: SW-620
NCI-H460 = test system: NCI-H460
MCF7 = test system: MCF7
SN12C = test system: SN12C
U-251 = test system: U-251
OVCAR-8 = test system: OVCAR-8
UO-31 = test system: UO-31
KM12 = test system: KM12
HT-29 = test system: HT-29
CCRF-CEM = test system: CCRF-CEM
HCC 2998 = test system: HCC 2998

Measured: GI50

Cc1nn(C(=O)c2ccccc2O)c2c1C(c1ccc3ccccc3c1O)SC(=N)N2 (stereo unspecified)
inactive: A498 6.47 µM | M14 6.21 µM | SNB-75 2.85 µM | SK-OV-3 6.3 µM | A549 4.91 µM | HOP-62 4.26 µM | SNB-19 8.61 µM | LOX IMVI 3.75 µM | ACHN 3.8 µM | SW-620 4.61 µM | NCI-H460 5.53 µM | MCF7 2.44 µM | SN12C 6.58 µM | U-251 3.66 µM | OVCAR-8 5.11 µM | UO-31 4.2 µM | KM12 7.46 µM | HT-29 9.55 µM | CCRF-CEM 3.76 µM

O=C1CN(/N=C/c2ccc(-c3ccc(F)cc3)o2)C(=O)N1
inactive: A498 25.2 µM | M14 75.3 µM | SK-OV-3 > 100 µM | A549 52.2 µM | HOP-62 > 100 µM | SNB-19 83.9 µM | LOX IMVI 26.6 µM | ACHN > 100 µM | SW-620 43 µM | NCI-H460 45.2 µM | MCF7 49.1 µM | SN12C 91.2 µM | U-251 89.3 µM | OVCAR-8 > 100 µM | UO-31 75.2 µM | KM12 33.1 µM | HCC 2998 80.9 µM | CCRF-CEM > 100 µM

C=C(C)C1=CCC[C@]2(C1)N=C(OC)[C@@H](C(C)C)N=C2OC
inactive: A498 > 100 µM | M14 > 100 µM | SNB-75 51.2 µM | SK-OV-3 > 100 µM | A549 > 100 µM | HOP-62 > 100 µM | SNB-19 > 100 µM | ACHN > 100 µM | SW-620 > 100 µM | NCI-H460 > 100 µM | MCF7 92.7 µM | SN12C > 100 µM | U-251 > 100 µM | OVCAR-8 > 100 µM | UO-31 96.4 µM | KM12 > 100 µM | HCC 2998 > 100 µM | HT-29 > 100 µM | CCRF-CEM 34.3 µM

Cc1cccnc1N/C=C1\C(=O)NC(=O)N(C)C1=O
inactive: A498 12.3 µM | M14 > 100 µM | SNB-75 35.9 µM | SK-OV-3 > 100 µM | A549 > 100 µM | HOP-62 > 100 µM | SNB-19 > 100 µM | LOX IMVI 93.8 µM | ACHN > 100 µM | SW-620 > 100 µM | NCI-H460 > 100 µM | MCF7 > 100 µM | SN12C > 100 µM | U-251 > 100 µM | OVCAR-8 > 100 µM | UO-31 > 100 µM | KM12 > 100 µM | HT-29 > 100 µM

Cn1c(=O)c2nc3nnc(C#N)c(N)n3c2n(C)c1=O
inactive: A498 51.4 µM | M14 > 100 µM | SK-OV-3 > 100 µM | A549 > 100 µM | HOP-62 > 100 µM | ACHN 44.4 µM | NCI-H460 > 100 µM | MCF7 > 100 µM | SN12C > 100 µM | U-251 > 100 µM | OVCAR-8 > 100 µM | UO-31 50.6 µM | KM12 > 100 µM | HCC 2998 > 100 µM | HT-29 > 100 µM | CCRF-CEM 67.8 µM

CC(C)N(C(=O)c1ccc(NCc2cc(O)ccc2O)cc1)C(C)C
inactive: A498 18 µM | M14 17.2 µM | SNB-75 24.8 µM | SK-OV-3 35.3 µM | A549 26.2 µM | HOP-62 25.5 µM | SNB-19 19.2 µM | LOX IMVI 14.7 µM | ACHN 13.8 µM | SW-620 21.5 µM | NCI-H460 18.2 µM | MCF7 23.9 µM | SN12C 18.2 µM | U-251 15.8 µM | OVCAR-8 14.4 µM | UO-31 9.44 µM | HT-29 18 µM | CCRF-CEM 3.08 µM

Nc1cccc(/C=C/C(=O)N2CCN(CCOC(c3ccccc3)c3ccccc3)CC2)c1
inactive: A498 17.5 µM | M14 13.2 µM | SNB-75 13.1 µM | SK-OV-3 16.5 µM | A549 16.6 µM | HOP-62 17.7 µM | SNB-19 17 µM | LOX IMVI 17.9 µM | ACHN 16.1 µM | SW-620 15.7 µM | NCI-H460 16.9 µM | MCF7 16.8 µM | SN12C 17.5 µM | U-251 15.8 µM | OVCAR-8 17.8 µM | UO-31 16.9 µM | KM12 17 µM | HT-29 8.2 µM | CCRF-CEM 10 µM

CCOC(=O)N1N=C(/C(C)=N/OC)C(C)[S+]1[O-] (stereo unspecified)
inactive: A498 > 100 µM | M14 > 100 µM | SNB-75 85.3 µM | SK-OV-3 > 100 µM | A549 > 100 µM | HOP-62 > 100 µM | SNB-19 > 100 µM | ACHN > 100 µM | SW-620 > 100 µM | NCI-H460 57.7 µM | MCF7 > 100 µM | SN12C > 100 µM | U-251 > 100 µM | OVCAR-8 > 100 µM | UO-31 > 100 µM | KM12 > 100 µM | HCC 2998 > 100 µM | HT-29 > 100 µM | CCRF-CEM > 100 µM

CC(=O)Nc1ccc(NC(=O)c2c(Cl)c(Cl)c(Cl)c(Cl)c2-c2nc3ccccc3[nH]2)cc1
inactive: A498 35 µM | M14 35.7 µM | SNB-75 73.3 µM | SK-OV-3 63.4 µM | A549 36.4 µM | HOP-62 53.3 µM | SNB-19 54.2 µM | ACHN 39.2 µM | SW-620 48.5 µM | NCI-H460 24.7 µM | MCF7 26.7 µM | SN12C 35.4 µM | OVCAR-8 45.1 µM | UO-31 47.5 µM | KM12 28.2 µM | HCC 2998 33.6 µM | HT-29 35.7 µM | CCRF-CEM 32.7 µM

Cc1cn(C2OC(CO[Si](C)(C)C(C)(C)C)/C(=C\C#N)C2O[Si](C)(C)C(C)(C)C)c(=O)[nH]c1=O (stereo unspecified)
inactive: A498 > 100 µM | M14 > 100 µM | SNB-75 56.9 µM | SK-OV-3 > 100 µM | A549 41.6 µM | HOP-62 63.7 µM | SNB-19 > 100 µM | LOX IMVI 19.5 µM | ACHN 83 µM | SW-620 > 100 µM | NCI-H460 8.83 µM | MCF7 1.89 µM | SN12C 64.6 µM | U-251 38.4 µM | UO-31 > 100 µM | KM12 27.1 µM | HT-29 40.7 µM | CCRF-CEM 9.51 µM

Cc1ccc(C2SC(=N)Nc3c2c(C)nn3C(=O)c2ccccc2O)cc1 (stereo unspecified)
inactive: A498 3.59 µM | M14 > 10 µM | SNB-75 2.54 µM | SK-OV-3 3.3 µM | A549 3.16 µM | HOP-62 > 10 µM | SNB-19 > 10 µM | LOX IMVI > 10 µM | ACHN 6.03 µM | SW-620 > 10 µM | NCI-H460 7.57 µM | MCF7 > 10 µM | SN12C > 10 µM | U-251 5.38 µM | OVCAR-8 > 10 µM | UO-31 6.87 µM | KM12 > 10 µM | HT-29 > 10 µM | CCRF-CEM > 10 µM

CCCCCCc1cc2cc(C(=O)Nc3cccc(F)c3)c(=N)oc2cc1O
inactive: A498 3.02 µM | M14 3.15 µM | SK-OV-3 3.37 µM | A549 3.27 µM | HOP-62 4.57 µM | SNB-19 3.55 µM | LOX IMVI 1.67 µM | ACHN 3.16 µM | SW-620 3.39 µM | NCI-H460 3.19 µM | MCF7 3.19 µM | U-251 1.97 µM | OVCAR-8 1.59 µM | UO-31 2.73 µM | KM12 2.71 µM | HCC 2998 3.19 µM | HT-29 17.9 µM | CCRF-CEM 1.63 µM

O=S(=O)(O)c1cccc2cccc(/N=N/c3c(O)ccc4ccccc34)c12
inactive: A498 > 100 µM | M14 > 100 µM | SNB-75 > 100 µM | SK-OV-3 > 100 µM | A549 > 100 µM | HOP-62 > 100 µM | SNB-19 > 100 µM | ACHN > 100 µM | SW-620 > 100 µM | NCI-H460 > 100 µM | MCF7 > 100 µM | SN12C > 100 µM | U-251 > 100 µM | OVCAR-8 > 100 µM | UO-31 > 100 µM | KM12 > 100 µM | HCC 2998 > 100 µM | HT-29 > 100 µM | CCRF-CEM > 100 µM

CC(C)(C)OC(=O)CC(NC(=O)OC(C)(C)C)C(=O)NC(Cc1ccccc1)C(N)=O (stereo unspecified) (Boc-Asp(OtBu)-Phe-NH2; configuration not given here)
inactive: A498 > 100 µM | M14 > 100 µM | SNB-75 > 100 µM | SK-OV-3 > 100 µM | A549 > 100 µM | HOP-62 > 100 µM | SNB-19 > 100 µM | LOX IMVI > 100 µM | ACHN > 100 µM | SW-620 > 100 µM | NCI-H460 > 100 µM | MCF7 > 100 µM | SN12C > 100 µM | U-251 > 100 µM | OVCAR-8 > 100 µM | UO-31 > 100 µM | KM12 > 100 µM | HT-29 > 100 µM | CCRF-CEM > 100 µM

Cn1cc(NC(=O)c2cc(NC(=O)CNC(=N)N)cn2C)cc1C(=O)NCCC(=N)N [NETROPSIN CHLORIDE]
inactive: A498 > 100 µM | M14 > 100 µM | SK-OV-3 > 100 µM | A549 > 100 µM | HOP-62 > 100 µM | SNB-19 > 100 µM | LOX IMVI > 100 µM | ACHN > 100 µM | SW-620 > 100 µM | NCI-H460 > 100 µM | MCF7 > 100 µM | SN12C > 100 µM | U-251 > 100 µM | OVCAR-8 > 100 µM | UO-31 > 100 µM | KM12 > 100 µM | HCC 2998 > 100 µM | HT-29 > 100 µM | CCRF-CEM > 100 µM
